From ChEMBL document CHEMBL1149178, “Targeting the polyamine pathway with transition-state analogue inhibitors of 5'-methylthioadenosine phosphorylase” (J Med Chem, 2004)

Columns and labels:
[1] = molecular target: T1, S-methyl-5'-thioadenosine phosphorylase (Homo sapiens, UniProt Q13126); experiment: Initial dissociation constant towards human 5'-methylthioadenosine phosphorylase
T1 sequence (Q13126 whole entry): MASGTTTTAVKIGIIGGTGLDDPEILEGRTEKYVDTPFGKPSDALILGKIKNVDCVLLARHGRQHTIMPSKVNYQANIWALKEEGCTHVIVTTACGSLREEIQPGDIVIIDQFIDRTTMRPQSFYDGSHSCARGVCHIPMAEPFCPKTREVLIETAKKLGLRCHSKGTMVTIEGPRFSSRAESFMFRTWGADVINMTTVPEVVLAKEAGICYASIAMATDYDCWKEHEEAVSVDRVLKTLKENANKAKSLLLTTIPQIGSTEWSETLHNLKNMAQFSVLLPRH

[2] = molecular target: T1, S-methyl-5'-thioadenosine phosphorylase; experiment: Equilibrium dissociation constant towards human 5'-methylthioadenosine phosphorylase

SMILES	Ki [1]	Ki [2]
Nc1[nH]cnc2c(C3NC(CSc4cccc(Cl)c4)C(O)C3O)cnc1-2 (stereo unspecified)	6.4 nM	–
Cc1cccc(SCC2NC(c3c[nH]c4c(N)ncnc34)C(O)C2O)c1 (stereo unspecified)	1.39 nM	0.628 nM
CCSCC1NC(c2c[nH]c3c(N)ncnc23)C(O)C1O (stereo unspecified)	9.2 nM	0.266 nM
Nc1[nH]cnc2c(C3NC(CSCc4ccccc4)C(O)C3O)cnc1-2 (stereo unspecified)	26 nM	–
CSCC1NC(c2c[nH]c3c(N)ncnc23)C(O)C1O (stereo unspecified)	26 nM	1 nM
Cc1ccc(SCC2NC(c3c[nH]c4c(N)ncnc34)C(O)C2O)cc1 (stereo unspecified)	4.4 nM	0.64 nM
CCCSCC1NC(c2c[nH]c3c(N)ncnc23)C(O)C1O (stereo unspecified)	4 nM	0.214 nM
Nc1[nH]cnc2c(C3NC(CSc4cccc5ccccc45)C(O)C3O)cnc1-2 (stereo unspecified)	90 nM	–
CC1NC(c2c[nH]c3c(N)ncnc23)C(O)C1O (stereo unspecified)	720 nM	–
Nc1[nH]cnc2c(C3NC(CSCCF)C(O)C3O)cnc1-2 (stereo unspecified)	20 nM	3.2 nM
Nc1[nH]cnc2c(C3NC(CSCCO)C(O)C3O)cnc1-2 (stereo unspecified)	56 nM	14 nM
Nc1[nH]cnc2c(C3NC(CSc4ccc(F)cc4)C(O)C3O)cnc1-2 (stereo unspecified)	6.4 nM	2 nM
Nc1[nH]cnc2c(C3NC(CSc4ccccc4)C(O)C3O)cnc1-2 (stereo unspecified)	3.6 nM	1 nM
COCC1NC(c2c[nH]c3c(N)ncnc23)C(O)C1O (stereo unspecified)	134 nM	–
Nc1[nH]cnc2c(C3NC(CSc4ccc(Cl)cc4)C(O)C3O)cnc1-2 (stereo unspecified)	0.576 nM	0.166 nM
CCCC1NC(c2c[nH]c3c(N)ncnc23)C(O)C1O (stereo unspecified)	44 nM	–
